Experimental data as given in patent US10785976B2, “Methods and compositions for environmentally friendly pest control” (BAYER CROPSCIENCE LP, priority 2016, dated 2020).
Where a name gives a salt, the structure may show the parent alone.

Test system: Aedes aegypti
Assay: Direct spray treatment (pump-sprayer), knock down and/or mortality
Format: in vivo
Protocol: The efficacy of a non-VOC solvent formulation of the invention was evaluated using a pump-sprayer against Culex quinquefasciatus and Aedes aegypti. The non-VOC solvent formulation of the invention comprising acetyl tributyl citrate (Formulation 1) was applied at a concentration of either 15.75 mg/ml or 31.5 mg/ml from a distance of approximately 15 cm. Controls were sprayed with water. The experiment was replicated five times and ten insects were sprayed per replicate.
Percentage knock-down and/or mortality was determined at three time points: 30 minutes following treatment; 1 hour following treatment; and 24 hours following treatment. The findings are presented below in Tables 4 and 5.
Further studies were conducted using acetyl tributyl citrate as described in Table 6.

Measured: % knock down and/or mortality of Aedes aegypti (out of 10 per replicate) after direct spray treatment

CCCCOC(=O)CC(CC(=O)OCCCC)(OC(C)=O)C(=O)OCCCC [Citroflex A-4, acetyl tributyl citrate]
100%: Many spray pushes pure Citroflex A4 (1 ml), 1 hour | Many spray pushes pure Citroflex A4 (1 ml), 24 hour mortality | One spray push Citroflex 1:1 with tap water, 1 hour | One spray push Citroflex 1:1 with tap water, 24 hour mortality | One spray push pure Citroflex A4 (1 ml), 1 hour | One spray push pure Citroflex A4 (1 ml), 24 hour mortality
